# How the values were obtained:
# [1] = PAMPA permeability, heart polar lipid extract (HPLE) membrane; conditions: for Mean logPe / Mean Pe: Heart Polar lipid extract membrane, n=3; for Papp at 4 h, 100 μM: bovine, PAMPA, pH 7.4; for Mean Pe: * = not detected at acceptor side, value calculated from limit of detection
# [2] = PAMPA permeability, liver polar lipid extract (LPLE) membrane; conditions: for Papp at 4 h, 100 μM: bovine, PAMPA
# [3] = PAMPA permeability, brain polar lipid extract (BPLE) membrane; conditions: for Mean logPe / Mean Pe: Brain Polar lipid extract membrane, n=3; for Papp at 4 h, 100 μM: pig, PAMPA, pH 7.4; for Mean Pe: * = not detected at acceptor side, value calculated from limit of detection
# [4] = PAMPA permeability, brain total lipid extract (BTLE) membrane; conditions: for Mean logPe / Mean Pe: Brain total lipid extract membrane, n=3; for Papp at 4 h, 100 μM: pig, PAMPA, pH 7.4; for Mean Pe: * = not detected at acceptor side, value calculated from limit of detection
# [5] = PAMPA permeability, liver total lipid extract (LTLE) membrane; conditions: for Mean logPe / Mean Pe: Liver total lipid extract membrane, n=3; for Papp at 4 h, 100 μM: bovine, PAMPA, pH 7.4; for Mean Pe: * = not detected at acceptor side, value calculated from limit of detection
# [6] = PAMPA permeability, heart total lipid extract (HTLE) membrane; conditions: for Mean logPe / Papp at 4 h, 100 μM / Mean Pe: Heart total lipid extract membrane, n=3; for Papp at 4 h, 100 μM: bovine, PAMPA
# [7] = pH 7.4, Mean Pe, n=3, * = not detected at acceptor side, value calculated from limit of detection
# [8] = pH 7.4, Mean Pe, * = not detected at acceptor side, value calculated from limit of detection
# [9] = * = not detected at acceptor side, value calculated from limit of detection
# [10] = n=3, * = not detected at acceptor side, value calculated from limit of detection
Molecule,Mean logPe [1],"Papp at 4 h, 100 μM [1]","Papp at 4 h, 100 μM [2, 7]",Mean logPe ([2]; n=3),Mean logPe [3],"Papp at 4 h, 100 μM [3]",Mean logPe [4],"Papp at 4 h, 100 μM [4]",Mean logPe [5],"Papp at 4 h, 100 μM [5]",Mean logPe [6],"Papp at 4 h, 100 μM [6, 8]",Mean Pe [3],Mean Pe [4],Mean Pe [5],"Mean Pe [6, 9]","Papp at 4 h, 100 μM ([6]; pH 7.4, Mean logPe)",Mean Pe [1],"Mean Pe [2, 10]",other results
CC1Cc2ccccc2N1NC(=O)c1ccc(Cl)c(S(N)(=O)=O)c1 (stereo not drawn) [indapamide],-5.28,5.37 ×10⁻⁶ cm/s,16.9 ×10⁻⁶ cm/s,-4.77,-5.19,6.6 ×10⁻⁶ cm/s,-5.29,5.22 ×10⁻⁶ cm/s,-4.61,24.5 ×10⁻⁶ cm/s,-5.69,2.04 ×10⁻⁶ cm/s,–,–,–,–,–,–,–,–
CC(CCc1ccccc1)NCC(O)c1ccc(O)c(C(N)=O)c1 (stereo not drawn) [labetalol],-5.08,8.38 ×10⁻⁶ cm/s,19 ×10⁻⁶ cm/s,-4.72,-4.65,22.2 ×10⁻⁶ cm/s,-4.83,15.1 ×10⁻⁶ cm/s,-4.42,38 ×10⁻⁶ cm/s,-5.27,5.37 ×10⁻⁶ cm/s,–,–,–,–,–,–,–,–
COCCc1ccc(OCC(O)CNC(C)C)cc1 (stereo not drawn) [metoprolol],-4.96,–,13.2 ×10⁻⁶ cm/s,–,–,–,–,–,-4.4,40.1 ×10⁻⁶ cm/s,-5.04,–,–,–,–,–,–,–,–,"Papp at 4 h, 100 μM ([2]; pH 7.4, Mean logPe, n=3): 19.5 ×10⁻⁶ cm/s"
NC(=O)Cc1cccc(C(=O)c2ccccc2)c1N [nepafenac],-4.59,25.9 ×10⁻⁶ cm/s,38.6 ×10⁻⁶ cm/s,-4.44,-4.67,21.3 ×10⁻⁶ cm/s,-4.61,24.4 ×10⁻⁶ cm/s,-4.14,72.9 ×10⁻⁶ cm/s,-4.73,18.8 ×10⁻⁶ cm/s,–,–,–,–,–,–,–,–
CCn1cc(C(=O)O)c(=O)c2cc(F)c(N3CCNCC3)cc21 [norfloxacin],-5.80,1.59 ×10⁻⁶ cm/s,7.17 ×10⁻⁶ cm/s,–,< -6.30,–,–,< 0.49 ×10⁻⁶ cm/s,–,< 0.501 ×10⁻⁶ cm/s,–,–,"< 0,50* 10-6 cm/s","< 0,49* 10-6 cm/s","< 0,5* 10-6 cm/s","< 0,54* 10-6 cm/s",< 0.537 ×10⁻⁶ cm/s,–,–,"Papp at 4 h, 100 μM ([2]; pH 7.4, Mean logPe, n=3): 5.25 ×10⁻⁶ cm/s"
CN1C(C(=O)Nc2ccccn2)=C(O)c2ccccc2S1(=O)=O [piroxicam],–,–,10.3 ×10⁻⁶ cm/s,-4.99,-5.64,2.35 ×10⁻⁶ cm/s,-5.45,3.57 ×10⁻⁶ cm/s,-4.79,16.3 ×10⁻⁶ cm/s,–,1.92 ×10⁻⁶ cm/s,–,–,–,–,2.88 ×10⁻⁶ cm/s,–,–,"PAMPA permeability on HTLE ([6]; pH 7.4, 4 h, 37 °C, in words (PCA biplot, Figure 11B)): low"
N=C(N)c1ccc(OCCCOc2ccc(C(=N)N)cc2)cc1 [propamidine],–,< 0.741 ×10⁻⁶ cm/s,–,< -6.12,< -6.12,–,< -6.13,–,< -6.12,–,–,–,"< 0,76* 10-6 cm/s","< 0,73* 10-6 cm/s","< 0,76* 10-6 cm/s","< 0,76* 10-6 cm/s",< 0.759 ×10⁻⁶ cm/s,"< 0,73* 10-6 cm/s","< 0,76* 10-6 cm/s",–
CCOC(=O)[C@H](CCc1ccccc1)N[C@@H](C)C(=O)N1[C@H](C(=O)O)C[C@@H]2CCC[C@@H]21 [ramipril],–,–,2.23 ×10⁻⁶ cm/s,–,–,–,–,–,–,–,–,–,"< 0,86* 10-6 cm/s","< 0,86* 10-6 cm/s",–,"< 0,87* 10-6 cm/s",–,"< 0,98* 10-6 cm/s",–,–
CC(C)c1nc(N(C)S(C)(=O)=O)nc(-c2ccc(F)cc2)c1/C=C/[C@@H](O)C[C@@H](O)CC(=O)O [rosuvastatin],–,< 0.468 ×10⁻⁶ cm/s,–,< -6.32,< -6.32,–,< -6.33,–,< -6.32,–,–,–,"< 0,48* 10-6 cm/s","< 0,46* 10-6 cm/s","< 0,48* 10-6 cm/s","< 0,48* 10-6 cm/s",< 0.479 ×10⁻⁶ cm/s,"< 0,46* 10-6 cm/s","< 0,48* 10-6 cm/s",–
ondansetron,-4.86,–,–,-4.59,-4.71,–,-4.63,–,–,–,-5.01,–,19.60 10-6 cm/s,23.49 10-6 cm/s,57.25 10-6 cm/s,9.85 10-6 cm/s,–,13.69 10-6 cm/s,25.69 10-6 cm/s,–
